Legend:
[1] = target: GFP-PfPK9 (Plasmodium falciparum, UniProt Q8IEG4); assay: ATP-competitive binding assay (ATP-sepharose pull-down, FLECS); details: GFP-PfPK9; Kd calculated from EC50 of ATP pull-down dose-response; read-out: Kd, app
Description: Primary small-molecule screen. A small-molecule screen was performed similar to a previously reported fluorescence linked enzyme chemoproteomic strategy (FLECS). Briefly, HEK293-GFP-PfPK9 cells were grown in 182-cm^2 tissue culture flasks (Genesee Scientific) and harvested at ˜80% cell confluency. Before assays the culture medium was aspirated, cells were rinsed with ice cold PBS and then they were removed with a cell scraper. Cells were pelleted by centrifugation (2,000 rpm, 4° C., 2 min) and immediately lysed for assays. The pellet was suspended in buffer A (25 mM HEPES, pH 7.4, 150 mM NaCl, 60 mM MgCl2, 1 mM DTT) with 1 μM microcystin, 0.1% Triton X-100 plus a Roche Complete protease inhibitor tablet and then placed on ice for 30 min to facilitate lysis. The supernatant was collected after centrifugation (4,300 rpm, 4° C., 5 min) and used in subsequent screening and titrations experiments. For screening, the supernatant was added to ATP-sepharose beads (1:1) and incubated with agitation at 4° C. for at least 1 hr to allow binding. Following this incubation, the mixture was centrifuged, the ATP resin was washed with 9 column volumes of buffer A with 1 M NaCl and then 9 column volumes of buffer A. The ATP-sepharose medium was reconstituted as a 1:1 slurry with buffer A and then added to 96-well filter plates (50 μL/well) (Corning #3505) using a multichannel pipette (Rainin). The filter plate was on top of black 96-well catch plates (Corning #3915). An ATP dilution series (1-200 mM) was added to each plate as a positive control and DMSO was the negative control. Compounds and controls were all added to 50 μL per well in buffer A. For screening, compounds were tested in singlicate at 500 μM. The final DMSO concentration in every well was 5%. The fluorescence intensity in each well was measured on an EnVision system. Data analyses of screens were carried out in EXCEL (Microsoft, Corp.) and actives were identified as 2×background signal.
All screening positives that were verified with Western blot analysis were purchased from Enamine or Vitas-M laboratory. The purity of compounds 1-5 (shown below) was verified by high-resolution MS (Agilent). Compounds were tested in 8-point dose-response (0-500 μM) experiments in duplicate, essential as described above. The fluorescence intensity in each well was measured using an EnVision system. Dose-response analysis was performed with GraphPad Prism to acquire EC50 values. Determined EC50 values were used to calculate the observed PfPK9 Kd and reported values are the average of 2-3 independent experiments.
Stable cell line generation. The P. falciparum PK9 gene (PlasmoDB accession #PF3D7_1315100) was cloned into the pEGFP-C1 mammalian expression vector (Clontech) in frame with a […] GFP tag. For screening, HEK293 cells were transfected with the resulting PfPK9-pEGFP-C1 vector to generate HEK293-GFP-PfPK9 expressing cells using X-tremeGENE HP transfection reagent (Roche) per the manufacturer instructions. Briefly, the culture medium was replaced at 48 hours post-transfection with medium supplemented with 1 mg/mL G418 sulfate (Life Technologies) to select for stably transfected cells. Following stable cell selection, fluorescence activated cell sorting (FACS) was used to enrich for GFP-PfPK9 expressing cells. Subsequently, FACS sorted HEK293-GFP-PfPK9 cells were cultured with medium supplemented with 0.5 mg/mL G418 sulfate for all following experiments. Protein expression was verified by Western blot analysis probing for anti-GFP and by fluorescence intensity using an EnVision (PerkinElmer) system.
All 14 positive molecules were also tested for their binding affinity to PfPK9 using an optimized ATP-competitive binding assay. EC50 values ranging from low μM to low mM were observed and these EC50 values were used to derive dissociation constants as described previously. […]

[2] = target: IRAK1 (Homo sapiens, UniProt P51617); assay: Kinase profiling (Dundee), IRAK1; format: biochemical
Description: (§1) Kinase selectivity profiling. The selectivity profile of HS-206 to inhibit mammalian kinases was tested against a panel of 140 kinases at a single concentration of 10 μM. Tests were performed using a radiolabeld (^33P-ATP) filter-binding assay at the International Centre for Kinase Profiling at the University of Dundee, UK (http://www.kinase-screen.mrc.ac.uk/).
(§2) This panel contains members of all major kinase families, including tyrosine kinases (TK), tyrosine kinase-like (TKL), sterile serine/threonine (STE), and CDK/MAPK/GSK/CLK (CMGC). […] For these kinases, IC50 values were determined (Table 1).

[3] = target: IRAK4 (Homo sapiens, UniProt Q9NWZ3); assay: Kinase profiling (Dundee), IRAK4; format: biochemical
Description: as §1, §2

[4] = test system: P. berghei EEFs; assay: Immunofluorescence analysis of P. berghei EEFs in Huh7 cells; format: cell-based
Description: Immunofluorescence analysis of EEFs. For immunofluorescence analysis of EEFs, Huh7 cells were fixed with 4% paraformaldehyde for 10 min at room temperature (RT), washed thrice with PBS, permeabilized with cooled methanol for 10 min at −20° C. and blocked with 3% BSA in PBS for 30 min at RT. Thereafter, cells were incubated with a primary antibody, mouse anti-PbHSP70 (clone 2E6 1:1000) diluted in blocking buffer overnight at 4° C. Following incubation, samples were washed with PBS and incubated for 1 hr at RT with a secondary antibody, goat anti-mouse AlexaFluor 488 (1:400, Life Technologies). Finally, nuclei were stained with DAPI for 15 min at RT. For evaluation of fluorescence intensity from EEFs after infection with GFP-expressing P. berghei sporozoites, DAPI nucleus staining was performed following cell fixation. After five washes with PBS, ˜40 μl PBS was left in wells and images were acquired on a Zeiss Axio Observer widefield fluorescence microscope.
To further investigate the effect of compound 1 during malaria's liver stage, immunofluorescence assays were performed. Infected Huh7 cells were treated with 10 μM or 30 μM compound 1 for various period of time ranging from 0-24 h post-infection (hpi), 24-48 hpi and 0-48 hpi, and subsequently labeled with P. berghei HSP70 antibodies at 48 hpi. […] EEF size as compared to DMSO treated cells at all time periods tested (One-way ANOVA P<0.0001). The number of P.b. EEFs was not affected by 10 μM compound 1 as compared to DMSO treatment (FIG. 4B; One-way ANOVA P=0.0804). Similarly, treatment of infected cells with 30 μM compound 1 led to increased P.b. EEF size when added either for 0-24 hpi or 24-48 hpi. (FIGS. 4C and 4E; One-way ANOVA P<0.0001). […] Moreover, total fluorescence signal from GFP-expressing P.b. EEFs decreased with compound 1 when added for a period of 48 h post-infection. […] EEF size was increased by 10 μM compound 1 as compared to DMSO treated cells.

Sequence of IRAK4 (Q9NWZ3 whole entry): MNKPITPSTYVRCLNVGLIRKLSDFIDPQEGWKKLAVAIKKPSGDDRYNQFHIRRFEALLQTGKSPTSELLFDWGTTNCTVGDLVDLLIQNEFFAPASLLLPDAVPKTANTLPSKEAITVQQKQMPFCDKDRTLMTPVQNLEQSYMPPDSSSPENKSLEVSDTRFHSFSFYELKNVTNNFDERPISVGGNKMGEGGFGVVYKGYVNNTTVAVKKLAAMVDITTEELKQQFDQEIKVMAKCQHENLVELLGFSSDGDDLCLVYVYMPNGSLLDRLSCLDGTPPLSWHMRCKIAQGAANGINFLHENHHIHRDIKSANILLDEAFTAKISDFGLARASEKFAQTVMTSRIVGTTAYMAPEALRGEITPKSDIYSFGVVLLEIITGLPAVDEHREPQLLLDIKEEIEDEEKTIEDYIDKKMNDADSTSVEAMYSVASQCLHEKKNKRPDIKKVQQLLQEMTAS
Sequence of IRAK1 (P51617 whole entry): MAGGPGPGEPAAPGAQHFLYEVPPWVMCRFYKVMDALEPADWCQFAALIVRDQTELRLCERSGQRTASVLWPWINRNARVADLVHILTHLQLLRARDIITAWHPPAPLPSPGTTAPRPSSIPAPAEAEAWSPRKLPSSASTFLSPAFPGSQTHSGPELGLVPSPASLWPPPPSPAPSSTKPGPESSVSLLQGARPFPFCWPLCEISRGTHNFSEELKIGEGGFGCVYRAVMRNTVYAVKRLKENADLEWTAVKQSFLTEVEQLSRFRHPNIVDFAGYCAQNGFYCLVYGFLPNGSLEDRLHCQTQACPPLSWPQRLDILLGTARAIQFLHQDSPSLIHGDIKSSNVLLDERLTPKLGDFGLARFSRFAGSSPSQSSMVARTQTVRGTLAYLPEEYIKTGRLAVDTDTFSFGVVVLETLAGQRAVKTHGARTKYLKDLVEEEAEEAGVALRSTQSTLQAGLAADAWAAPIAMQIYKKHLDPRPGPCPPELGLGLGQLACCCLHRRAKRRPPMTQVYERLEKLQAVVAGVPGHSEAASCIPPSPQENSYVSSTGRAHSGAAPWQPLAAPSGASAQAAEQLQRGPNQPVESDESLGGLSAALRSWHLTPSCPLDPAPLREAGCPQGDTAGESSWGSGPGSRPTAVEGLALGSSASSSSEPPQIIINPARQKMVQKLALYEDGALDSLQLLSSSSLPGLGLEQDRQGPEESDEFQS
Sequence of GFP-PfPK9 (Q8IEG4 entry or part of it): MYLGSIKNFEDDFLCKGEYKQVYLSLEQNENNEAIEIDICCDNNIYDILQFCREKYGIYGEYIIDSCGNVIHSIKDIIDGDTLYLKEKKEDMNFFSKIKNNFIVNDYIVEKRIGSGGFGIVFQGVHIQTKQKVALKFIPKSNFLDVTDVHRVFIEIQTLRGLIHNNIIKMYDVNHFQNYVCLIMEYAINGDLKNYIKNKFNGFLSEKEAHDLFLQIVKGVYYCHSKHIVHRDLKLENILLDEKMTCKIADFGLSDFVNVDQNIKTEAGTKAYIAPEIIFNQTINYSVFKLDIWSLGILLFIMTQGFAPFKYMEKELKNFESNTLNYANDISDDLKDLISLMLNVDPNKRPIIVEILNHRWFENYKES

Which results are given for `CCCn1c(NC(=O)c2cccc(C(N)=O)c2)nc2ccccc21` [HS-206 (1), (E)-N-(1-Propyl-1,3-dihydro-2H-benzo[d]imidazol-2-ylidene)isophthalamide]?
Kd [1]: 200 nM; IC50 [2]: 390 ± 50 nM; inhibition at 10 µM ([2]; 10 μM): > 90%; IC50 [3]: 120 ± 30 nM; inhibition at 10 µM ([3]; 10 μM): > 90%; P.b. EEF size ([4]; 10 μM, 0-24, 24-48 and 0-48 hpi, Huh7): significantly increased; number of P.b. EEFs ([4]; 10 μM, Huh7): not affected; number of P.b. EEFs ([4]; 30 μM, added 0-24 hpi or 0-48 hpi): decreased; P.b. EEF size ([4]; 30 μM, added 0-24 hpi or 24-48 hpi, Huh7): increased; number of P.b. EEFs ([4]; 30 μM, treatment from 24-48 hpi): did not significantly decreased; total fluorescence signal from GFP-expressing P.b. EEFs ([4]; 10 and 30 μM, 48 h post-infection): decreased

— US11767298B2, “Substituted benzimidazoles as inhibitors of transforming growth factor-β kinase” (Duke University, priority 2016, dated 2023)
